The record followed here is ChEMBL document CHEMBL1130816, “Synthesis and antibacterial activity of O-methyl derivatives of azalide antibiotics: II. 6-OME derivatives via clarithromycin” (1998).

Each structure is given as a SMILES string. Converted amounts (≈) assume the structure as drawn.

What all share (assay type): functional
One experiment concerns Enterococcus faecium. In words: Compound was evaluated for antibacterial activity against Enterococcus faecium (MB5516) sensitive strain.
A further experiment relates to Bacillus subtilis. As to the kind of experiment: Compound was evaluated for antibacterial activity against Bacillus subtilis (MB5586) sensitive strain.
A further experiment relates to Staphylococcus aureus. In words: Compound was evaluated for antibacterial activity against Staphylococcus aureus (MB2865) sensitive strain.
A further experiment has as its system Enterococcus faecalis. In words: Compound was evaluated for antibacterial activity against Enterococcus faecalis (MB5407) sensitive strain.
Another experiment has as its system Streptococcus pneumoniae. In words: Compound was evaluated for antibacterial activity against Streptococcus pneumoniae (MB3957) sensitive strain.
Another experiment has as its system Streptococcus pyogenes. In words: Compound was evaluated for antibacterial activity against Streptococcus pyogenes (MB2874) sensitive strain.

One may read the MIC as the least concentration at which growth counts as inhibited. `CC[C@H]1OC(=O)[C@H](C)[C@@H](O[C@H]2C[C@@](C)(OC)[C@@H](OC)[C@@H](C)O2)[C@H](C)[C@@H](O[C@@H]2O[C@H](C)C[C@@H](N(C)C)[C@H]2O)[C@](C)(O)C[C@@H](C)N(C)C[C@H](C)[C@@H](OC)[C@]1(C)OC`: the minimal inhibitory concentration (MIC) was found to be 8 µg/mL (≈ 10.1 µM) in the experiment on Enterococcus faecium; 2 µg/mL (≈ 2.53 µM) against Bacillus subtilis; 32 µg/mL (≈ 40.5 µM) with Staphylococcus aureus; 32 µg/mL (≈ 40.5 µM) against Enterococcus faecalis; 4 µg/mL (≈ 5.06 µM) in the experiment on Streptococcus pneumoniae; 0.5 µg/mL (≈ 0.632 µM) against Streptococcus pyogenes.
For the compound `CC[C@H]1OC(=O)[C@H](C)[C@@H](O[C@H]2C[C@@](C)(OC)[C@@H](O)[C@@H](C)O2)[C@H](C)[C@@H](O[C@@H]2O[C@H](C)C[C@@H](N(C)C)[C@H]2O)[C@](C)(OC)C[C@@H](C)CN(C)[C@H](C)[C@@H](O)[C@]1(C)O`, the MIC worked out at 1 µg/mL (≈ 1.31 µM) against Enterococcus faecium; 1 µg/mL (≈ 1.31 µM) against Bacillus subtilis; 2 µg/mL (≈ 2.62 µM) in the experiment with Staphylococcus aureus; 8 µg/mL (≈ 10.5 µM) against Enterococcus faecalis; 0.5 µg/mL (≈ 0.655 µM) with Streptococcus pneumoniae; 0.12 µg/mL (≈ 0.157 µM) against Streptococcus pyogenes.
On to `CC[C@H]1OC(=O)[C@H](C)[C@@H](O[C@H]2C[C@@](C)(OC)[C@@H](O)[C@H](C)O2)[C@H](C)[C@@H](O[C@@H]2O[C@H](C)C[C@H](N(C)C)[C@H]2O)[C@](C)(O)C[C@@H](C)CN(C)[C@H](C)[C@@H](O)[C@]1(C)O` [AZITHROMYCIN], for which the MIC in the experiment with Enterococcus faecium is 0.25 µg/mL (≈ 0.334 µM); against Bacillus subtilis it was 1 µg/mL (≈ 1.34 µM); in the experiment on Staphylococcus aureus, 0.5 µg/mL (≈ 0.668 µM); against Enterococcus faecalis, 4 µg/mL (≈ 5.34 µM); with Streptococcus pneumoniae it was below 0.06 µg/mL; with Streptococcus pyogenes, 0.03 µg/mL (≈ 0.0401 µM).
Turning to `CC[C@H]1OC(=O)[C@H](C)[C@@H](O[C@H]2C[C@@](C)(OC)[C@@H](OC)[C@@H](C)O2)[C@H](C)[C@@H](O[C@@H]2O[C@H](C)C[C@@H](N(C)C)[C@H]2O)[C@](C)(O)C[C@@H](C)N(C)C[C@H](C)[C@@H](O)[C@]1(C)O`, the minimal inhibitory concentration (MIC) with Enterococcus faecium is 2 µg/mL (≈ 2.62 µM); in the experiment on Bacillus subtilis, 4 µg/mL (≈ 5.24 µM); against Staphylococcus aureus, 8 µg/mL (≈ 10.5 µM); in the experiment on Enterococcus faecalis, 8 µg/mL (≈ 10.5 µM); against Streptococcus pneumoniae it was 0.5 µg/mL (≈ 0.655 µM); in the experiment with Streptococcus pyogenes, 0.03 µg/mL (≈ 0.0393 µM).
In the case of `CC[C@H]1OC(=O)[C@H](C)[C@@H](O[C@H]2C[C@@](C)(OC)[C@H](O)[C@H](C)O2)[C@H](C)[C@@H](O[C@@H]2O[C@H](C)C[C@H](N(C)C)[C@H]2O)[C@](C)(O)C[C@@H](C)N(C)C[C@H](C)[C@@H](O)[C@]1(C)O`, the MIC with Enterococcus faecium is 0.125 µg/mL (≈ 0.167 µM); against Bacillus subtilis it was 0.3 µg/mL (≈ 0.401 µM); with Staphylococcus aureus, 0.3 µg/mL (≈ 0.401 µM); in the experiment with Enterococcus faecalis it was 2 µg/mL (≈ 2.67 µM); with Streptococcus pneumoniae, below 0.06 µg/mL; in the experiment with Streptococcus pyogenes, below 0.06 µg/mL.
Regarding `CC[C@H]1OC(=O)[C@H](C)[C@@H](O[C@H]2C[C@@](C)(OC)[C@@H](O)[C@@H](C)O2)[C@H](C)[C@@H](O[C@@H]2O[C@H](C)C[C@@H](N(C)C)[C@H]2O)[C@](C)(OC)C[C@@H](C)N(C)C[C@H](C)[C@@H](O)[C@]1(C)O`, the minimal inhibitory concentration (MIC) in the experiment on Enterococcus faecium turned out to be 1 µg/mL (≈ 1.31 µM); in the experiment with Bacillus subtilis, 1 µg/mL (≈ 1.31 µM); in the experiment with Staphylococcus aureus it was 2 µg/mL (≈ 2.62 µM); with Enterococcus faecalis, 16 µg/mL (≈ 21 µM); against Streptococcus pneumoniae, 0.5 µg/mL (≈ 0.655 µM); against Streptococcus pyogenes it was 0.06 µg/mL (≈ 0.0786 µM).
For the compound `CC[C@H]1OC(=O)[C@H](C)[C@@H](O[C@H]2C[C@@](C)(OC)[C@@H](OC)[C@@H](C)O2)[C@H](C)[C@@H](O[C@@H]2O[C@H](C)C[C@@H](N(C)C)[C@H]2O)[C@](C)(OC)C[C@@H](C)N(C)C[C@H](C)[C@@H](OC)[C@]1(C)OC`, the minimal inhibitory concentration (MIC) with Enterococcus faecium came out at 8 µg/mL (≈ 9.94 µM); with Bacillus subtilis it was 8 µg/mL (≈ 9.94 µM); in the experiment with Staphylococcus aureus it was 32 µg/mL (≈ 39.7 µM); against Enterococcus faecalis it was 32 µg/mL (≈ 39.7 µM); in the experiment on Streptococcus pneumoniae, 4 µg/mL (≈ 4.97 µM); against Streptococcus pyogenes it was 0.5 µg/mL (≈ 0.621 µM).
